ChEMBL document CHEMBL1145360, “Highly potent growth hormone secretagogues” (Bioorg Med Chem Lett, 2007)

Columns and labels:
[1] = Stimulation of growth hormone in rat pituitary cell; type: functional, cell-based; details: pituitary gland cell
Canis familiaris [2] = assay: Effect on growth hormone release in Beagle dog assessed as increase of GH level at 0.25 mg/kg, po relative to basal level; type: functional, Canis lupus familiaris
Canis familiaris [3] = assay: Effect on growth hormone release in Beagle dog assessed as increase of GH level at 0.50 mg/kg, po relative to basal level; type: functional, Canis lupus familiaris; details: dose 0.5 mg/kg
Canis familiaris [4] = assay: Effect on growth hormone release in Beagle dog assessed as increase of GH level at 0.01 mg/kg, iv relative to basal level; type: functional, Canis lupus familiaris
Canis familiaris [5] = assay: Effect on growth hormone release in Beagle dog assessed as increase of GH level at 0.06 mg/kg, po relative to basal level; type: functional, Canis lupus familiaris

Structure (SMILES)	EC50 [1]	further results
CC(C)(N)C(=O)N[C@H](CCCc1ccccc1)C(=O)N1CCC2(CC1)C[C@@H](C(=O)NCCNS(C)(=O)=O)c1ccccc12	0.21 nM	
CC(C)(N)C(=O)N[C@H](CCCc1ccccc1)C(=O)N1CCC2(CC1)C[C@@H](C(N)=O)c1ccccc12.Cl	0.09 nM	Fold change (Canis familiaris [2]): 4
CNC(=O)[C@@H]1CC2(CCN(C(=O)[C@@H](CCCc3ccccc3)NC(=O)C(C)(C)N)CC2)c2ccccc21	0.4 nM	
CC(C)(N)C(=O)N[C@H](CCCc1ccccc1)C(=O)N1CCC2(CC1)C[C@@H](C(=O)NCCO)c1ccccc12.Cl	0.51 nM	Fold change (Canis familiaris [3]): 4
C=CCNC(=O)[C@@H]1CC2(CCN(C(=O)[C@@H](CCCc3ccccc3)NC(=O)C(C)(C)N)CC2)c2ccccc21	0.14 nM	
CC(C)(N)C(=O)N[C@H](CCCc1ccccc1)C(=O)N1CCC2(CC1)C[C@H](C(N)=O)c1ccccc12	0.35 nM	
CC(C)(N)C(=O)N[C@H](CCCc1ccccc1)C(=O)N1CCC2(CC1)C[C@H](C(=O)NCCCCO)c1ccccc12	0.73 nM	
CC(C)(N)C(=O)N[C@H](CCCc1ccccc1)C(=O)N1CCC2(CC1)C[C@@H](C(=O)NCCCCO)c1ccccc12	0.44 nM	
CC(C)(N)C(=O)N[C@H](CCCc1ccccc1)C(=O)N1CCC2(CC1)C[C@H](C(=O)NCCCO)c1ccccc12	0.85 nM	
CCNC(=O)[C@@H]1CC2(CCN(C(=O)[C@@H](CCCc3ccccc3)NC(=O)C(C)(C)N)CC2)c2ccccc21	0.9 nM	
CC(C)(N)C(=O)N[C@H](CCCc1ccccc1)C(=O)N1CCC2(CC1)C[C@@H](C(=O)Nc1ccccc1)c1ccccc12	1.2 nM	
CC(C)NC(=O)[C@@H]1CC2(CCN(C(=O)[C@@H](CCCc3ccccc3)NC(=O)C(C)(C)N)CC2)c2ccccc21	0.3 nM	
CC(C)(N)C(=O)N[C@H](CCCc1ccccc1)C(=O)N1CCC2(CC1)C[C@@H](C(=O)NCCCO)c1ccccc12	0.41 nM	
CC(C)(N)C(=O)N[C@H](CCCc1ccccc1)C(=O)N1CCC2(CC1)C[C@H](C(=O)NCCO)c1ccccc12	0.45 nM	
CCNC(=O)[C@H]1CC2(CCN(C(=O)[C@@H](CCCc3ccccc3)NC(=O)C(C)(C)N)CC2)c2ccccc21	2.1 nM	
CCCNC(=O)[C@@H]1CC2(CCN(C(=O)[C@@H](CCCc3ccccc3)NC(=O)C(C)(C)N)CC2)c2ccccc21.Cl	0.15 nM	Fold change (Canis familiaris [4]): 4; Fold change (Canis familiaris [5]): 4
CNC(=O)[C@H]1CC2(CCN(C(=O)[C@@H](CCCc3ccccc3)NC(=O)C(C)(C)N)CC2)c2ccccc21	3.8 nM	
CC(C)(N)C(=O)N[C@H](COCc1ccccc1)C(=O)N1CCC2(CC1)CN(S(C)(=O)=O)c1ccccc12 [IBUTAMOREN]	1.5 nM	
